The subject of this experiment is E. coli O157. It counts as cell-based, Escherichia coli. Conditions: HPLC-grade purified peptides, E. coli O157. The protocol: The MICs of active peptides were determined via the Broth microdilution assay according to the EUCAST guideline, which were performed in 96-well polystyrene flat-bottom microtiter plates (BD Biosciences). Briefly, a single colony was inoculated into 5 mL LB medium and grown to the end-exponential growth phase in a shaking incubator at 37° C. Cultures were subsequently diluted to an OD600 of 0.002 ([…]) in fresh LB medium. 100 μL of LB medium with different concentration of peptides ranging from 100 μg/mL to 1 μg/mL were serially diluted to the sterile 96-well plate (at least 3 wells in each plate). Afterward, 100 μL of the diluted bacteria were pipetted into 96-well plates containing different concentration of peptides. In each plate, the grown bacteria with maximum concentration of carrier and medium were considered as positive and negative controls, respectively. Thereafter, 96-well plates was statically incubated overnight at 37° C. to allow bacterial growth. A multipurpose UV/VIS plate reader at OD590 nm, 1 s shaking measured the absorbance of the growth bacteria using a Perkin Elmer spectrophotometer (1420 Multilabel Counter Victor 3).

Residues, ends and D or L forms follow the SMILES beside them. A value given as a limit tells only on which side of the number the result lay.

For orientation: MIC means the smallest concentration in the dilution series that meets the test's criterion for growth inhibition.

As to `CC(C)C[C@H](NC(=O)CNC(=O)[C@H](CCCNC(=N)N)NC(=O)[C@@H]1CCCN1C(=O)[C@H](CCCNC(=N)N)NC(=O)[C@H](CCCNC(=N)N)NC(=O)[C@@H]1CCCN1C(=O)[C@H](CC(C)C)NC(=O)[C@H](C)NC(=O)[C@@H]1CCCN1C(=O)CNC(=O)[C@H](CC(C)C)NC(=O)CNC(=O)[C@@H](N)CCCNC(=N)N)C(=O)NCC(=O)N1CCC[C@H]1C(=O)N[C@@H](C)C(=O)N[C@@H](CC(C)C)C(=O)N1CCC[C@H]1C(=O)N[C@@H](CCCNC(=N)N)C(=O)N[C@@H](CCCNC(=N)N)C(=O)O` [P2 pro2] (H-RGLGPALPRRPRGLGPALPRR-OH), the MIC was greater than 100 µg/mL.

These data come from US11872262B2, “Means and methods for treating bacterial infections” (VIB VZW, priority 2017, dated 2024).
